The values below come from patent US20220153732A1, “PROTEIN SECRETION INHIBITORS” (KEZAR LIFE SCIENCES, priority 2019, published 2022).

pEC50, pIC50: −log10 of the molar value. Read-outs that look alike come from different tables or passages of the source.

Common to all, as to type: cell-based
The subject of assay [1] is TNFα-FL/Gaussia Luciferase. Nature of the assay: Dox Induced TNFα-FL-Gluc Assay. The conditions noted are these: 293FRT/TO cells, read-out: 24 hr Dox Inducible TNFaFLGluc 293FRT/TO: Mean IC50. In short, it runs like this: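 Compounds were added in doxycycline-containing DMSO/media to cells plated the previous day and incubated at 37° C under 5% CO2. These cells stably express a TNFα-FL/Gaussia luciferase cDNA whose expression is under T-REx (Dox-inducible) control, selected with Hygromycin and Blasticidin.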

Assay [2] relates to PD1-ss+10aa/Gaussia Luciferase. Nature of the assay: Dox-Induced PD1-ss-Gluc Assay. Conditions: 293FRT/TO cells, read-out: 24 hr Dox Inducible PD1ssGluc 293FRT/TO: Mean IC50. In short, it runs like this:
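Compounds, diluted in DMSO/media with doxycycline, were added to cells plated a day earlier and kept at 37° C under 5% CO2. The cells stably express a Gaussia luciferase construct fused to PD1-ss+10aa, induced via the T-REx system. Unassigned stereochemistry means mixture data.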

Assay [3] has as its system HER3-ss+4aa/Gaussia Luciferase. Nature of the assay: Dox-Induced Her3-ss-Gluc Assay. Conditions: 293FRT/TO cells, read-out: 24 hr Dox Inducible Her3(ss + 4)Gluc 293FRT/TO: Mean IC50. In short, it runs like this:
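Compounds, diluted in DMSO/media containing doxycycline, were incubated at 37° C., 5% CO2 with cells seeded one day earlier. The cells stably express HER3-ss+4aa/Gaussia luciferase under T-REx control. Where no stereochemistry is shown, data refer to the mixture of stereoisomers.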

In assay [4] the test system is human multiple myeloma cell line NCI-H929. Nature of the assay: H929 Cell Viability Assay. Conditions: 48 hr, NCI-H929 cells, Celltiter-Glo, read-out: 48 hr H929 Viability Celltiter-Glo: Mean EC50. On the procedure: Plates were incubated at 37° C., 5% CO2 for 48 hours. After 48 hours, Celltiter-Glo® (Promega) was added to each well and luciferase signal was quantified using Tecan Infinite M1000 Pro for cell viability determination.
For chemical structures that include one or more stereoisomers, but are illustrated without indicating stereochemistry, the assay data refers to a mixture of stereoisomers.
Background: In ATP-based viability assays light output follows the ATP content of the culture.

Assay [5] concerns human multiple myeloma cell line U266B1. Nature of the assay: U266 Cell Viability Assay. The conditions noted are these: U-266, 48 hr, U266B1 cells, Celltiter-Glo, read-out: 48 hr U266 Viability Celltiter-Glo: Mean EC50. In short, it runs like this: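 Viability measured by CellTiter-Glo luciferase signal after 48 h compound exposure (37 °C, 5% CO2) of U266B1 cells in 384-well format. Where stereochemistry is not shown, data refer to the stereoisomer mixture.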

The test system of assay [6] is IL-2-FL/Gaussia Luciferase. Nature of the assay: Dox Induced IL2-FL-Gluc Assay. The conditions noted are these: 293FRT/TO cells, read-out: 24 hr Dox Inducible IL2FLGIuc 293FRT/TO: Mean IC50. The essentials: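 Compounds were added together with doxycycline in DMSO/media and incubated at 37° C., 5% CO2. The cells were a stably selected line carrying IL-2-FL/Gaussia luciferase under T-REx inducible control. Structures drawn without stereochemistry were tested as stereoisomer mixtures.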

[7] abbreviates: 24 hr doxycycline induction, Gaussia luciferase signal.

On to `O=C(Nc1nc(/C=C/C2CCCCO2)cs1)c1cccn1Cc1ccncc1` (stereo not drawn) [Compound A155, 1-(pyridin-4-ylmethyl)-N-(4-(2-(tetrahydro-2H-pyran-2-yl)vinyl)thiazol-2-yl)-1H-pyrrole-2-carboxamide], for which the pIC50 in assay [1] (setting [7]) was 4.80; in assay [2] (setting [7]), 6.63; in assay [3] (setting [7]), 5.67; in assay [6] (setting [7]), 5.36. The pEC50 in assay [4] and in assay [5] was < 4.60 each time.
In the case of `CC(OC(C)(C)c1csc(NC(=O)c2cccn2Cc2ccncc2)n1)c1cccc(Cl)c1` (stereo not drawn) [Compound A2, N-(4-(2-(1-(3-chlorophenyl)ethoxy)propan-2-yl)thiazol-2-yl)-1-(pyridin-4-ylmethyl)-1H-pyrrole-2-carboxamide], the pIC50 in assay [1] (setting [7]) is 6.41; in assay [2] (setting [7]) it was 7.54; in assay [3] (setting [7]), 7.21; in assay [6] (setting [7]), 6.98. In addition, the negative logarithm of the EC50 (pEC50) (in general, the EC50 on a negative log10 scale, so that one unit is a factor of ten) in assay [4] was 5.79; in assay [5], 4.65.
`O=C(Nc1nc(/C=C/c2ccc(OC3CC3)cc2)cs1)c1cccn1Cc1ccncc1` [Compound A248, N-(4-(4-cyclopropoxystyryl)thiazol-2-yl)-1-(pyridin-4-ylmethyl)-1H-pyrrole-2-carboxamide]: the pIC50 is 5.82 in assay [1] (setting [7]), 7.42 in assay [2] (setting [7]), 6.82 in assay [3] (setting [7]) and 6.68 in assay [6] (setting [7]). For the same compound, the negative logarithm of the EC50 (pEC50) in assay [4] and in assay [5] was < 4.60 in each case.
For `CC(C)OC1(c2csc(NC(=O)c3cccn3Cc3ccncc3)n2)CC1` [Compound A123], the pIC50 in assay [1] (setting [7]), in assay [2] (setting [7]), in assay [3] (setting [7]) and in assay [6] (setting [7]) was < 4.60 in each case. In addition, the pEC50 in assay [4] and in assay [5] was < 4.60 each time.
In the case of `CC(C)OC(C)(C)c1csc(NC(=O)c2cccn2C/C=C/c2ccncc2)n1` [Compound A221, N-(4-(2-isopropoxypropan-2-yl)thiazol-2-yl)-1-(3-(pyridin-4-yl)allyl)-1H-pyrrole-2-carboxamide], the pIC50 in assay [1] (setting [7]), in assay [2] (setting [7]), in assay [3] (setting [7]) and in assay [6] (setting [7]) was < 4.60 in each case. Further, the negative logarithm of the EC50 (pEC50) in assay [4] and in assay [5] was < 4.60 throughout.
Regarding `CC(C)OC(C)(C)c1csc(NC(=O)c2cccn2Cc2ccncc2F)n1` [Compound A25, 1-((3-fluoropyridin-4-yl)methyl)-N-(4-(2-isopropoxypropan-2-yl)thiazol-2-yl)-1H-pyrrole-2-carboxamide], the pIC50 is 5.00 in assay [1] (setting [7]), 6.50 in assay [2] (setting [7]), 6.16 in assay [3] (setting [7]) and 6.31 in assay [6] (setting [7]). Moreover, the pEC50 in assay [4] and in assay [5] was < 4.60 each time.
For the compound `CC(C)(OC1CCCCC1)c1csc(NC(=O)c2cccn2Cc2ccncc2)n1` [Compound A10, N-(4-(2-(cyclohexyloxy)propan-2-yl)thiazol-2-yl)-1-(pyridin-4-ylmethyl)-1H-pyrrole-2-carboxamide], the pIC50 in assay [1] (setting [7]) is 5.80; in assay [2] (setting [7]) it was 6.98; in assay [3] (setting [7]), 6.71; in assay [6] (setting [7]), 6.80. The results for the pEC50 in assay [4] and in assay [5] were 4.81 and < 4.60, respectively.
Take `CC(C)(CCc1ccccc1)c1csc(NC(=O)c2cccn2Cc2ccncc2)n1` [Compound A225, N-(4-(2-methyl-4-phenylbutan-2-yl)thiazol-2-yl)-1-(pyridin-4-ylmethyl)-1H-pyrrole-2-carboxamide]: the pIC50 was 5.42 in assay [1] (setting [7]), 6.49 in assay [2] (setting [7]), 6.25 in assay [3] (setting [7]) and 6.31 in assay [6] (setting [7]). Further, the negative logarithm of the EC50 (pEC50) in assay [4] is 5.05; in assay [5], < 4.60.
As to `Cc1cc(C(=O)Nc2nc(C(C)(C)OC(C)C)cs2)n(Cc2ccncc2)c1` [Compound A48, N-(4-(2-isopropoxypropan-2-yl)thiazol-2-yl)-4-methyl-1-(pyridin-4-ylmethyl)-1H-pyrrole-2-carboxamide], the pIC50 in assay [1] (setting [7]) was < 4.60; in assay [2] (setting [7]) it was 5.93; in assay [3] (setting [7]), 5.57; in assay [6] (setting [7]) it was 5.65. Also, the pEC50 in assay [4] and in assay [5] was < 4.60 in each case.
As for `O=C(Nc1nc(/C=C/c2ccccc2Cl)cs1)c1cccn1Cc1ccncc1` [Compound A161, N-(4-(2-chlorostyryl)thiazol-2-yl)-1-(pyridin-4-ylmethyl)-1H-pyrrole-2-carboxamide], the pIC50 is 5.54 in assay [1] (setting [7]), 6.87 in assay [2] (setting [7]), 6.28 in assay [3] (setting [7]) and 5.97 in assay [6] (setting [7]). The negative-log EC50 (pEC50) in assay [4] is 5.28; in assay [5], 4.96.
As for `O=C(Nc1nc(C#Cc2ccccc2Cl)cs1)c1cccn1Cc1ccncc1` [Compound A144], the pIC50 in assay [1] (setting [7]) was 6.04; in assay [2] (setting [7]), 6.82; in assay [3] (setting [7]), 6.40; in assay [6] (setting [7]) it was 6.13. Also, the pEC50 was 5.16 in assay [4] and 4.98 in assay [5].
Consider `O=C(Nc1nc(/C=C/c2ccc3c(n2)OCO3)cs1)c1cccn1Cc1ccncc1` [Compound A272], for which the pIC50 in assay [1] (setting [7]) is < 4.60; in assay [2] (setting [7]) it was 6.58; in assay [3] (setting [7]), 5.76; in assay [6] (setting [7]) it was < 4.60. In addition, the negative-log EC50 (pEC50) in assay [4] and in assay [5] was < 4.60 in each case.
On to `O=C(Nc1nc([C@H]2C[C@@H](O)CN2c2ccccc2)cs1)c1cccn1Cc1ccncc1` [Compound A321], for which the pIC50 in assay [1] (24 hr, doxycycline-induced) is 5.38; in assay [2] (24 hr, doxycycline-induced), 6.67; in assay [3] (24 hr, doxycycline-induced) it was 6.04; in assay [6] (24 hr, doxycycline-induced), 6.02. The negative-log EC50 (pEC50) was 5.01 in assay [4] and < 4.60 in assay [5].
Turning to `CCS(=O)(=O)N1CCN(Cc2csc(NC(=O)c3cccn3Cc3ccncc3)n2)CC1` [Compound A96, N-(4-((4-(ethylsulfonyl)piperazin-1-yl)methyl)thiazol-2-yl)-1-(pyridin-4-ylmethyl)-1H-pyrrole-2-carboxamide], the pIC50 was < 4.60 in assay [1] (setting [7]), 4.80 in assay [2] (setting [7]), < 4.60 in assay [3] (setting [7]) and < 4.60 in assay [6] (setting [7]). Moreover, the negative-log EC50 (pEC50) in assay [4] and in assay [5] was < 4.60 in each case.
`O=C(Nc1ncc([N+](=O)[O-])s1)c1cccn1Cc1ccncc1` [Compound B17]: the pIC50 in assay [1] (24 hr, doxycycline-induced) is < 4.60; in assay [2] (24 hr, doxycycline-induced), < 4.60; in assay [3] (24 hr, doxycycline-induced), < 4.60; in assay [6] (24 hr, doxycycline-induced), < 4.60. Besides, the pEC50 in assay [4] and in assay [5] was < 4.60 throughout.
On to `CCc1sc(NC(=O)c2cccn2Cc2ccncc2)nc1CN1CCN(S(=O)(=O)CC)CC1` [Compound A92, N-(5-ethyl-4-((4-(ethylsulfonyl)piperazin-1-yl)methyl)thiazol-2-yl)-1-(pyridin-4-ylmethyl)-1H-pyrrole-2-carboxamide], for which the pIC50 in assay [1] (setting [7]) is < 4.60; in assay [2] (setting [7]) it was 4.88; in assay [3] (setting [7]) it was < 4.60; in assay [6] (setting [7]), < 4.60. The pEC50 in assay [4] and in assay [5] was < 4.60 in each case.
With `COc1cccc(/C=C/c2csc(NC(=O)c3cccn3Cc3ccncc3)n2)c1` [Compound A159, N-(4-(3-methoxystyryl)thiazol-2-yl)-1-(pyridin-4-ylmethyl)-1H-pyrrole-2-carboxamide], the pIC50 was 5.05 in assay [1] (setting [7]), 6.61 in assay [2] (setting [7]), 6.02 in assay [3] (setting [7]) and 5.58 in assay [6] (setting [7]). For the same compound, the pEC50 in assay [4] was 5.24; in assay [5], 4.79.
As to `O=C(Nc1nc([C@H]2CCN2c2ccccc2)cs1)c1cccn1Cc1ccncc1` [Compound A336], the pIC50 in assay [1] (24 hr, doxycycline-induced) was 5.87; in assay [2] (24 hr, doxycycline-induced) it was 6.43; in assay [3] (24 hr, doxycycline-induced), 6.08; in assay [6] (24 hr, doxycycline-induced), 6.48. Moreover, the negative logarithm of the EC50 (pEC50) was 4.75 in assay [4] and < 4.60 in assay [5].
